# Results: ChEMBL document CHEMBL4340507, “Identification of an indol-based multi-target kinase inhibitor through phenotype screening and target fishing using inverse virtual screening approach” (Eur J Med Chem, 2019)
# Calls of active or inactive are those of the source. The calls are words filed in the database; no cut-off is given here.
# What was measured:
# PC-3 = experiment: Antiproliferative activity against human PC3 cells assessed as decrease in cell viability measured after 72 hrs by MTT assay; assay type: functional, cell-based; conditions: PC-3, 72 h
# MCF7 = experiment: Antiproliferative activity against human MCF7 cells assessed as decrease in cell viability measured after 72 hrs by MTT assay; assay type: functional, cell-based; conditions: MCF7, 72 h
# HeLa [1] = experiment: Antiproliferative activity against human HeLa cells assessed as decrease in cell viability measured after 72 hrs by MTT assay; assay type: functional, cell-based
# Jurkat = experiment: Antiproliferative activity against human Jurkat T cells assessed as decrease in cell viability measured after 24 to 72 hrs by MTT assay; assay type: functional, cell-based
# IEC-6 [2] = experiment: Cytotoxicity against rat IEC-6 cells assessed as reduction in cell viability measured after 24 to 72 hrs by MTT assay; assay type: cell-based; conditions: for Activity: rat, iec-6
# IEC-6 [3] = experiment: Cell cycle arrest in rat IEC-6 cells assessed as decrease in accumulation at G2-phase at 0.1 to 0.6 uM after 24 hrs by propidium iodide staining-based FACS analysis; assay type: ADME; conditions: iec-6, 24 h
# IEC-6 [4] = experiment: Cytotoxicity against rat IEC-6 cells assessed as reduction in cell viability at 0.1 to 0.6 uM measured after 24 to 72 hrs by MTT assay; assay type: cell-based; conditions: iec-6, 0.6 µM
# IEC-6 [5] = experiment: Cell cycle arrest in rat IEC-6 cells assessed as accumulation at G0/G1-phase at 0.1 to 0.6 uM after 24 hrs by propidium iodide staining-based FACS analysis; assay type: ADME; conditions: iec-6, 24 h
# IEC-6 [6] = experiment: Cell cycle arrest in rat IEC-6 cells assessed as increase in accumulation at S phase at 0.1 to 0.6 uM after 24 hrs by propidium iodide staining based FACS analysis; assay type: ADME; conditions: iec-6, 24 h
# HeLa [7] = experiment: Induction of ROS generation in human HeLa cells at 0.1 to 0.6 uM measured after 24 hrs by H2DC-DA probe-based FACS analysis; assay type: functional, cell-based
# HeLa [8] = experiment: Cell cycle arrest in human HeLa cells assessed as decrease in accumulation at G2-phase at 0.1 to 0.6 uM after 24 hrs by propidium iodide staining-based FACS analysis; assay type: functional
# HeLa [9] = experiment: Inhibition of ERK phosphorylation in human HeLa cells at 0.6 uM after 24 hrs by FACS analysis; assay type: cell-based
# HeLa [10] = experiment: Induction of apoptosis in human HeLa cells assessed as increase in hypodiploid nuclei at 0.3 to 0.6 uM measured after 24 hrs by propidium iodide staining-based FACS analysis; assay type: functional, cell-based
# IEC-6 [11] = experiment: Down regulation of ERK expression in rat IEC-6 cells at 0.6 uM after 24 hrs by FACS analysis; assay type: ADME, cell-based; conditions: iec-6, 24 h
# IEC-6 [12] = experiment: Induction of ROS generation in rat IEC-6 cells at 0.1 to 0.6 uM measured after 24 hrs by H2DCF-DA staining-based FACS analysis; assay type: cell-based; conditions: iec-6, 24 h
# HeLa [13] = experiment: Induction of apoptosis in human HeLa cells assessed as effect on PARP level at 0.1 to 0.6 uM after 24 hrs by FACS analysis; assay type: functional, cell-based
# IEC-6 [14] = experiment: Induction of apoptosis in rat IEC-6 cells assessed as effect on PARP level at 0.1 to 0.6 uM after 24 hrs by FACS analysis; assay type: cell-based; conditions: iec-6, 24 h
# HeLa [15] = experiment: Induction of apoptosis in human HeLa cells assessed as increase in caspase 3 level at 0.1 to 0.6 uM after 24 hrs by FACS analysis; assay type: functional, cell-based
# [16] = Inhibition of ERK phosphorylation in rat IEC-6 cells at 0.6 uM after 24 hrs by FACS analysis; assay type: cell-based; conditions: iec-6, 24 h
# IEC-6 [17] = experiment: Induction of apoptosis in rat IEC-6 cells assessed as increase in hypodiploid nuclei at 0.1 to 0.6 uM measured after 24 hrs by propidium iodide staining-based FACS analysis; assay type: cell-based; conditions: iec-6, 24 h
# HeLa [18] = experiment: Cell cycle arrest in human HeLa cells assessed as accumulation at G0/G1-phase at 0.1 to 0.6 uM after 24 hrs by propidium iodide staining-based FACS analysis; assay type: functional
# IEC-6 [19] = experiment: Induction of apoptosis in rat IEC-6 cells assessed as increase in caspase 3 level at 0.1 to 0.6 uM after 24 hrs by FACS analysis; assay type: cell-based; conditions: iec-6, 24 h
# HeLa [20] = experiment: Down regulation of ERK expression in human HeLa cells at 0.1 to 0.6 uM after 24 hrs by FACS analysis; assay type: functional, cell-based
SMILES,IC50 (PC-3) [µM],IC50 (MCF7) [µM],IC50 (HeLa [1]) [µM],IC50 (Jurkat) [µM],further results
CN(CCc1ccccc1)Cc1cn(C)c2ccc(C(=O)Nc3ccc(F)cc3)cc12,47.7,14.7,19.6,> 100,
COc1cc(CN(C)Cc2cn(C)c3ccc(C(=O)Nc4ccc(F)cc4)cc23)cc(OC)c1OC,6.45,13.2,4.21,42.1,
CN(CCc1ccc(-c2ccccc2)cc1)Cc1cn(C)c2ccc(CNc3ccc(F)cc3)cc12,72.7,2.15,2.92,26.5,
CC(=O)N(CCc1ccc(-c2ccccc2)cc1)Cc1cn(C)c2ccc(C(=O)Nc3ccc(C)cc3)cc12,> 100,12.8,> 100,> 100,
Cn1cc(CNCCc2ccc(-c3ccccc3)cc2)c2cc(CNc3ccc(F)cc3)ccc21,2.08,76.4,14.7,72,
CN(Cc1ccc(-c2ccccc2)cc1)Cc1cn(C)c2ccc(CNc3ccc(F)cc3)cc12,84.3,20.2,8.18,34.4,
CN(CCc1ccc(-c2ccccc2)cc1)Cc1cn(C)c2ccc(C(=O)N3CCCCC3)cc12,52.2,3.04,73.2,60.4,Activity (IEC-6 [2]): Non-Toxic
Cn1cc(CN2CCN(Cc3ccc(-c4ccccc4)cc3)CC2)c2cc(C(=O)Nc3ccc(F)cc3)ccc21,37.5,63.9,39.7,> 100,
CC(=O)N(CCc1ccc(-c2ccccc2)cc1)Cc1cn(C)c2ccc(C(=O)Nc3ccc(F)cc3)cc12,> 100,82.6,> 100,> 100,
O=C(Nc1ccc(F)cc1)c1ccc2c(ccn2Cc2ccc(-c3ccccc3)cc2)c1,8.36,10.8,67.6,> 100,
CN(Cc1ccc(-c2ccccc2)cc1)Cc1cn(C)c2ccc(C(=O)Nc3ccc(F)cc3)cc12,> 100,54.4,23.6,> 100,
N#Cc1c(Oc2ccc(F)c(NC(=O)Cc3cccc(C(F)(F)F)c3)c2)ccc2nc(NC(=O)C3CC3)sc12,,,,,Activity (IEC-6 [3]): Toxic; Activity (IEC-6 [4]): Toxic; Activity (IEC-6 [5]): Toxic; Activity (IEC-6 [6]): Toxic; Activity (HeLa [7]): Active; Activity (HeLa [8]): Active; inhibition (HeLa [9]): Active; Activity (HeLa [10]): Active; Activity (IEC-6 [11]): Toxic; Activity (IEC-6 [12]): Toxic; Activity (HeLa [13]): inactive; Activity (IEC-6 [14]): Non-Toxic; Activity (HeLa [15]): Active; inhibition (INH) [16]: Active; Activity (IEC-6 [17]): Toxic; Activity (HeLa [18]): Active; Activity (IEC-6 [19]): Toxic; Activity (HeLa [20]): Active
CN(CCc1ccc(Oc2ccccc2)cc1)Cc1cn(C)c2ccc(C(=O)Nc3ccc(F)cc3)cc12,30.8,20.7,16.6,51.8,
CCCn1cc(CNCCc2ccc(-c3ccccc3)cc2)c2cc(CNc3ccc(F)cc3)ccc21,5.41,1.26,7.23,6.21,Activity (IEC-6 [2]): Toxic
CN(Cc1cccc2ccccc12)Cc1cn(C)c2ccc(CNc3ccc(F)cc3)cc12,9.41,4.55,0.95,3.68,"IC50 (IEC-6 [2]; Rattus norvegicus, IEC-6): 590 nM"
CN(Cc1ccc(Oc2ccccc2)cc1)Cc1cn(C)c2ccc(CNc3ccc(F)cc3)cc12,56,37,9.98,35.6,
CN1CCN(Cc2cn(C)c3ccc(C(=O)Nc4ccc(F)cc4)cc23)CC1,89.2,24.7,24.8,> 100,
COc1cccc2c1C(=O)c1c(O)c3c(c(O)c1C2=O)C[C@@](O)(C(=O)CO)C[C@@H]3O[C@H]1C[C@H](N)[C@H](O)[C@H](C)O1 [DOXORUBICIN],1.07,14,1.44,2.35,
CCNC(=O)c1ccc2c(c1)c(CN(C)CCc1ccc(-c3ccccc3)cc1)cn2C,87.5,12.2,> 100,79.2,
Cn1cc(CNCCc2ccc(-c3ccccc3)cc2)c2cc(C(=O)Nc3ccc(F)cc3)ccc21,45.3,7.07,24.3,83.8,
Cc1ccc(NC(=O)c2ccc3c(c2)c(CN(C)CCc2ccc(-c4ccccc4)cc2)cn3C)cc1,50.3,3.04,69.8,68,Activity (IEC-6 [2]): Non-Toxic
